Ends that are not written are not given here.
Legend:
[1] = system: dissociated rat embryonic neurons; experiment: Distribution of 35S-methionine labelled peptides in cell compartments and medium; type: cell-based; conditions: for internalization / translocation through the membrane: 35S-labelled peptides, 2 hours; for MEDIUM (peptide distribution, radioactivity in fraction) / NUCLEAR (peptide distribution, radioactivity in fraction) / POST-NUCLEAR (peptide distribution, radioactivity in fraction): 2 hours incubation, mean ± standard deviation of 6 experiments; for share of the peptides that reach the nuclei: within 2 hours
Protocol: Peptides pAntp50A, pAntp48S, and pAntp40P2, labelled in E. coli with ^35 S-methionine were purified and added to dissociated rat embryonic neurons. After incubation for 2 hours, the medium was recovered by centrifugation and, after lysis of the cells with NP40, nuclear and post-nuclear fractions were isolated.
Identity of the radioactive material present in the nuclei was analysed by gel electrophoresis.
After lysis of the neurons, peptide distribution in the different cell compartments and in the medium was quantified by determination of radioactivity in each fraction.

[2] = system: dissociated embryonic cells; experiment: Confocal microscopy of fluoresceinated peptides: internalization and nuclear accumulation; type: cell-based, rat; conditions: 2 hours incubation, cells cultured 1 day before fixation
Description: The cells were then washed, plated and cultured for 1 day before fixation.

[3] = system: neurons removed from rat embryos (mesencephalon, spinal cord, cortex); experiment: Biological effect of pAntp on neuritic growth of cultured neurons; type: cell-based; conditions: rat embryo neurons in CDM medium, peptide 9 µg/ml (equivalent to 1.3M), 24 h
Protocol: The neurons removed from rat embryos (E14 to E 16) in various regions of the brain (mesencephalon, spinal cord, cortex), are inoculated into a defined medium (CHAMAK and PROCHIANTZ, DEVELOPMENT, 106, 483, 1989) which permits the survival of only the neuronal cells (CDM medium).
The peptide is added to the nerve cells at a concentration of […] (equivalent to 1.3M).

living neurons = experiment: Penetration of biotinylated pAntp fragments encompassing helix 3 into living neurons; type: cell-based; conditions: biotinylated peptides 10 μg/ml, 37° C., 3 hours, fluorinated streptavidin
Protocol: These peptides (10 μg/ml) were separately incubated with living neurons, at 37° C. for 3 hours.
After washing and fixation of the cells, the localisation of the peptides is checked by use of fluorinated streptavidin.

Substance | internalization / translocation through the membrane [1] | MEDIUM (peptide distribution, radioactivity in fraction) [1] [%] | NUCLEAR (peptide distribution, radioactivity in fraction) [1] [%] | POST-NUCLEAR (peptide distribution, radioactivity in fraction) [1] [%] | share of the peptides that reach the nuclei [1] [%] | uptake and nuclear accumulation by confocal microscopy [2] | neuritic growth [3] | intracellular localization of the fluorescent label (penetration) (living neurons)
pAntp40P2: mutant pAntp, Leu^40 and Thr^41 substituted by two proline residues (SEQ ID NO: 12) | internalized rapidly | 87.5 ± 2.5 | 11.5 ± 2 | 1.0 ± 0.5 | 10 to 20 | taken up by all cells in the population and significant concentrations of the peptides accumulated in the nuclei | none of the mutants pAntp40P2, pAntp50A, and pAntp48S was able to promote neurite growth | –
pAntp48S: mutant pAntp, Trp^48, Phe^49 and Glu^50 in helix 3 replaced by a single serine residue (SEQ ID NO. 11) | unable to translocate through the membrane | 96.5 ± 1 | 2.5 ± 0.5 | 1.0 ± 0.5 | – | – | none of the mutants pAntp40P2, pAntp50A, and pAntp48S was able to promote neurite growth | –
pAntp 41-60: synthetic biotinylated peptide, amino-acids 41-60 of pAntp (SEQ ID NO: 7) (TERQIKIWFQNRRMKWKKEN; also: biotinylated, site not given here) | – | – | – | – | – | – | – | intracellular localization of the fluorescent label
pAntp 41-55: synthetic biotinylated peptide, amino-acids 41-55 of pAntp (SEQ ID NO: 9) | – | – | – | – | – | – | – | not
pAntp50A: mutant recombinant pAntp, Glu^50 →Ala^50 substitution in helix 3 plus His^36 →Tyr cloning artifact (SEQ ID NO: 10) | internalized rapidly | 75.0 ± 6 | 19.0 ± 5 | 6.0 ± 1 | 10 to 20 | taken up by all cells in the population and significant concentrations of the peptides accumulated in the nuclei | none of the mutants pAntp40P2, pAntp50A, and pAntp48S was able to promote neurite growth | –
pAntp 43-58: synthetic biotinylated peptide, amino-acids 43-58 of pAntp, helix 3 (SEQ ID NO: 8) (RQIKIWFQNRRMKWKK; also: biotinylated, site not given here) | – | – | – | – | – | – | – | intracellular localization of the fluorescent label
